Laboratory results reported in patent US8937091B2 (Japan Science and Technology Agency, priority 2009, dated 2015).

Tests used:
TGase = TGase (Cavia porcellus, UniProt P08587); format: biochemical
Description: An enzyme reaction solution (0.1 ml) (100 mM HEPES-NaOH, pH 7.5, 1 mM CaCl2, 20 μM monodansyl cadaverine, 0.05 mg/ml N,N-dimethylcasein, 5 μg/ml TGase) was introduced into wells of a 96-well plate (Nunc, 96 Well Black Plate with Clear Bottom). A test compound was added in concentrations of 0.3, 1.0, 3.0, 10, and 30 μM. The solution and the compound were sufficiently mixed while preventing foaming. The plate was set in the fluorescence drug screening system FDSS 3000 (Hamamatsu Photonics K.K.). TGase-inhibiting activity of the compound was calculated by assaying changes in fluorescence wavelength (at 340 nm) per unit time. […] The assay level at which TGase activity decreased by half in the presence of the test compound was designated as TG 50.
Hereafter, the numerals in parentheses written after the TG level, the SOCE level, and the IICR level correspond to the test compound concentrations. The number following the name of each title compound used in the Examples below represents a compound ID number designated arbitrarily by the present inventors.

[1] = test system: IICR (IP3 induced calcium release) in CHO cells; assay: Assay of IICR (IP3 induced calcium release)-inhibiting action; format: cell-based, Chinese hamster
Outline: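 Inhibition (%) of the intracellular calcium increase triggered by 10 μM ATP, measured in CHO cells in BSS with calcium. Compound given 1 min after the buffer exchange and 2 min before ATP; values reported per compound concentration.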

Compound | TG-activity-inhibiting action or protein-crosslinking-inhibiting action (in words) (TGase) | IICR-inhibiting activity compared with SOCE-inhibiting activity (in words) [1]
Cc1ccc(C(=O)CCN(CCO)Cc2ccccc2)o1 [Example 8404, 2-(N-benzylhydroxyethyl)aminoethyl-5-methyl-2-furylketone] | strongly | higher than SOCE-inhibiting activity
Cc1ccc(C(=O)CCN(Cc2ccccc2)C(C)(C)C)o1 [Example 8405, 2-(N-benzyl-t-butyl)aminoethyl-5-methyl-2-furylketone] | strongly | higher than SOCE-inhibiting activity
CCN(CCC(=O)c1ccco1)Cc1ccccc1 [Example 8412, 2-(N-benzylethyl)aminoethyl-2-furylketone] | strongly | higher than SOCE-inhibiting activity
CC(C)(C)N(CCC(=O)c1cccs1)Cc1ccccc1 [Example 8638, 2-(N-t-butylbenzyl)aminoethyl-2-thiophenylketone] | strongly | higher than SOCE-inhibiting activity
CCc1nccnc1C(=O)CCN(Cc1ccccc1)C(C)C [Example 8656, 2-(N-isopropylbenzyl)aminoethyl-2-(3-ethyl)-pyrazylketone] | strongly | higher than SOCE-inhibiting activity
CCc1nccnc1C(=O)CCN(Cc1ccccc1)C(C)(C)C [Example 8658, 2-(N-t-butylbenzyl)aminoethyl-2-(3-ethyl)-pyrazylketone] | strongly | higher than SOCE-inhibiting activity
CC(C)N(CCC(=O)c1cc(Cl)sc1Cl)Cc1ccccc1 [Example 8659, 2-(N-isopropylbenzyl)aminomethyl-3-(2,5-dichlorothiophenyl)ketone] | strongly | higher than SOCE-inhibiting activity
Cc1nc(C)c(C(=O)CCN(Cc2ccccc2)C(C)C)s1 [Example 8666, 2-(N-benzylisopropyl)aminoethyl-5-(2,4-dimethylthiazolyl)ketone] | strongly | higher than SOCE-inhibiting activity
CN(CCC(=O)c1ccncc1)Cc1ccccc1 [Example 8673, 2-(N-methylbenzyl)aminoethyl-4-pyridylketone] | strongly | higher than SOCE-inhibiting activity
CC(C)(C)N(CCC(=O)c1cccnc1)Cc1ccccc1 [Example 8702, 2-(N-benzyl-t-butyl)aminoethyl-3-pyridylketone] | strongly | higher than SOCE-inhibiting activity
CN(CCO)CCC(=O)c1ccco1 [Example 8707, 2-(N-2-hydroxyethylmethyl)aminoethyl-2-furylketone] | strongly | higher than SOCE-inhibiting activity
CC(C)(C)N(CCC(=O)c1nccs1)Cc1ccccc1 [Example 8729, 2-(N-benzyl-t-butyl)aminoethyl-2-thiazolylketone] | strongly | higher than SOCE-inhibiting activity
CC(C)(C)N(CCC(=O)c1ccc(Cl)s1)Cc1ccccc1 [Example 8756, 2-(N-t-butylbenzyl)aminoethyl-5-chloro-2-thienylketone] | strongly | higher than SOCE-inhibiting activity
CC(C)N(CCC(=O)c1cc2ccccc2s1)Cc1ccccc1 [Example 8759, 2-(N-isopropylbenzyl)aminoethyl-2-benzothienylketone] | strongly | higher than SOCE-inhibiting activity
CC(C)(C)N(CCC(=O)c1cc2ccccc2s1)Cc1ccccc1 [Example 8761, 2-(N-t-butylbenzyl)aminoethyl-2-benzothienylketone] | strongly | higher than SOCE-inhibiting activity
CCN(CCC(=O)c1nccs1)Cc1ccccc1 [Example 8765, 2-(N-ethylbenzyl)aminoethyl-2-thiazolylketone] | strongly | higher than SOCE-inhibiting activity
O=C(CCN(CCO)Cc1ccccc1)c1nccs1 [Example 8766, 2-(N-2-hydroxyethylbenzyl)aminoethyl-2-thiazolylketone] | strongly | higher than SOCE-inhibiting activity
CC(C)N(CCC(=O)c1ccc(Br)s1)Cc1ccccc1 [Example 8768, 2-(N-isopropylbenzyl)aminoethyl-5-bromo-2-thienylketone] | strongly | higher than SOCE-inhibiting activity
CCCCN(CCO)CCC(=O)c1ccc(Br)s1 [Example 8769, 2-(N-2-hydroxyethylbutyl)aminoethyl-5-bromo-2-thienylketone] | strongly | higher than SOCE-inhibiting activity
CC(C)(C)N(CCC(=O)c1ccc(C#N)cc1)Cc1ccccc1 [Example 8789, 2-(N-t-butylbenzyl)aminoethyl-4-cyanophenylketone] | strongly | higher than SOCE-inhibiting activity
CC(C)N(CCC(=O)c1ccc(C#N)cc1)Cc1ccccc1 [Example 8803, 2-(N-benzylisopropyl)aminoethyl-4-cyanophenylketone] | strongly | higher than SOCE-inhibiting activity
Cc1ccsc1C(=O)CCN(Cc1ccccc1)C(C)(C)C [Example 8816, 2-(N-benzyl-t-butyl)aminoethyl-3-methyl-2-thienylketone] | strongly | higher than SOCE-inhibiting activity
Cc1csc(C(=O)CCN(Cc2ccccc2)C(C)(C)C)c1 [Example 8817, 2-(N-benzyl-t-butyl)aminoethyl-4-methyl-2-thienylketone] | strongly | higher than SOCE-inhibiting activity
Cc1ccc(C(=O)CCN(Cc2ccccc2)C(C)(C)C)s1 [Example 8818, 2-(N-benzyl-t-butyl)aminoethyl-5-methyl-2-thienylketone] | strongly | higher than SOCE-inhibiting activity
CCCCN(CCCC)CCC(=O)c1ccc(Br)s1 [Example 8848, 2-(N,N-di-n-butyl)aminoethyl-5-bromo-2-thienylketone] | strongly | higher than SOCE-inhibiting activity
CCC(C)N(CCC(=O)c1ccc(Br)s1)C(C)CC (stereo not shown) [Example 8849, 2-(N,N-di-sec-butyl)aminoethyl-5-bromo-2-thienylketone] | strongly | higher than SOCE-inhibiting activity
